Source: patent US9273046B2, “Fused tricyclic compounds as Raf kinase inhibitors” (BeiGene, LTD., priority 2011, dated 2016)
Where two headings read alike, the source gives them in different places.

Legend:
B-Raf (V600E) = B-Raf (V600E) (Homo sapiens (Human), UniProt P15056, V600E); experiment: Raf IC50 assay, time-resolved fluorescence energy transfer (TR-FRET), B-Raf; assay type: biochemical
Experimental: The enzyme was incubated with the compounds at room temperature for 60 minutes and the reactions were initiated by the addition of ATP and GST-MEK1. […] Plates were sealed and incubated at room temperature for 2 hours, and then the TR-FRET signals were read on BMG PHERAstar FS instrument. The IC50 for each compound was calculated by non linear regression by Graphpad Prism software.

C-Raf (Y340D/Y341D) = C-Raf (Y340D/Y341D) (Homo sapiens (Human), UniProt P04049, Y340D/Y341D); experiment: Raf IC50 assay, time-resolved fluorescence energy transfer (TR-FRET), C-Raf; assay type: biochemical; details: 0.5 nM C-Raf, 0.1 mM ATP, GST-tagged MEK1 substrate, 60 min preincubation
C-Raf (Y340D/Y341D), sequence (P04049 whole entry Y340D/Y341D): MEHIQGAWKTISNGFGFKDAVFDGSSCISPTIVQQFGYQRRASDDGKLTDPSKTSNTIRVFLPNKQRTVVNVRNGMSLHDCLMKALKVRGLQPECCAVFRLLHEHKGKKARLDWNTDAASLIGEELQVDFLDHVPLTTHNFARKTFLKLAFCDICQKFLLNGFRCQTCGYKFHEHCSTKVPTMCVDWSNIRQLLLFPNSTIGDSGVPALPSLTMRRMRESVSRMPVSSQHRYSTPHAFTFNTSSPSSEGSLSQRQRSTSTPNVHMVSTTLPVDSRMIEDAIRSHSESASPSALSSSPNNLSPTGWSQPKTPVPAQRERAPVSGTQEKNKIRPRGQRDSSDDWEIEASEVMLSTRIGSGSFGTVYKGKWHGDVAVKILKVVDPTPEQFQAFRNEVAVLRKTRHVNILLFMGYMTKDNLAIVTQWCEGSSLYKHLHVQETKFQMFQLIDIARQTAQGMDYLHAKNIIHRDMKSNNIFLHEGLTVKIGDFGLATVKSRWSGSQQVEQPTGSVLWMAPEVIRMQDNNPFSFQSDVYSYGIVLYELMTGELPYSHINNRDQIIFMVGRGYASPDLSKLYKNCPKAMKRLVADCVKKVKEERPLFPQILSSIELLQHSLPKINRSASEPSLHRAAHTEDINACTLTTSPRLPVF
Experimental: The assay was carried out in reactions (10 μL) containing 0.0625 nM B-Raf or 0.5 nM C-Raf, 25 mM Tris pH7.4, 10 mM MgCl2, 0.5 mM EGTA, 0.5 mM […], 5 mM beta-glycerophosphate, 0.01% Triton X-100, 2.5 mM DTT, 0.1% BSA, 0.1 mM ATP, 13.7 nM GST-tagged MEK1 (Full-length protein with K97R mutation, recombinant protein purified from bacterial expression system) and 0-5 μM compounds disclosed herein (final concentration of 1% DMSO). The enzyme was incubated with the compounds at room temperature for 60 minutes and the reactions were initiated by the addition of ATP and GST-MEK1. After incubating at room temperature for 60 minutes, an equal volume of stop buffer containing 25 mM Tris pH7.4, 400 mM KF, 50 mM EDTA, 0.01% BSA, 0.01% Triton X-100, 1 test of Eu3+ Cryptate-conjugated rabbit polyclonal antibody anti-Phospho MEK1/2 (Ser217/221) and 1 test of d2-conjugated mouse monoclonal antibody anti-glutathione S-transferase was added to stop the reactions. Plates were sealed and incubated at room temperature for 2 hours, and then the TR-FRET signals were read on BMG PHERAstar FS instrument. The IC50 for each compound was calculated by non linear regression by Graphpad Prism software.

[1] = 0.0625 nM B-Raf, 0.1 mM ATP, GST-tagged MEK1 substrate, 60 min preincubation, read-out: B-Raf (V600E) IC50

B-Raf (V600E), sequence (P15056 whole entry V600E): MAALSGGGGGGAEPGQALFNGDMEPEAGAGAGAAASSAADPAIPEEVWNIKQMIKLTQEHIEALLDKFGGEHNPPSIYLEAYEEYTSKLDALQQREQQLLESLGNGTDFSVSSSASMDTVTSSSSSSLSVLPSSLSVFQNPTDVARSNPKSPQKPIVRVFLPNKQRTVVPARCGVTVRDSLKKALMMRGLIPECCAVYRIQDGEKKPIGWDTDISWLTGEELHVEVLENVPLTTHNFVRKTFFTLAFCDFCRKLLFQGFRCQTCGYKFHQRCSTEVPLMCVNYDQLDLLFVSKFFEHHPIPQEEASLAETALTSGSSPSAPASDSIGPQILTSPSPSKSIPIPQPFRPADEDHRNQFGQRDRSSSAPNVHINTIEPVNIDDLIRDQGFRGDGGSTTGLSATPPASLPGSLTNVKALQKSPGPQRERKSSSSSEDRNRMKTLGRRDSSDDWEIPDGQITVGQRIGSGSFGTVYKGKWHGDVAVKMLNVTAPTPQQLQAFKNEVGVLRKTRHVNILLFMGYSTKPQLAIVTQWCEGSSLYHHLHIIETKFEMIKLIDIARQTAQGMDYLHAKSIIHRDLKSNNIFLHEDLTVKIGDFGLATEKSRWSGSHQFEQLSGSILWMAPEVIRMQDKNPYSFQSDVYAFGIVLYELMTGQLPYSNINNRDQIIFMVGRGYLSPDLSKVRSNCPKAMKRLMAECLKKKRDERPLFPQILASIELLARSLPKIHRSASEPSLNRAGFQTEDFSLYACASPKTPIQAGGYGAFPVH

SMILES | IC50 (B-Raf (V600E)) [nM] | IC50 (C-Raf (Y340D/Y341D)) [nM] | IC50 (B-Raf (V600E); [1]) [nM]
O=C1CCc2c(Oc3ccc4c(c3)C3C(O4)C3C(=O)O)ccnc2N1 (racemic) [Intermediate II, (±)-exo-5-((7-Oxo-5,6,7,8-tetrahydro-1,8-naphthyridin-4-yl)oxy)-1a,6b-dihydro-1H-cyclopropa[b]benzofuran-1-carboxylic acid] | > 5000 | 2910 | 
FC(F)(F)c1ccc2nc(C3C4Oc5ccc(Oc6ccnc(-c7nc(C(F)(F)F)c[nH]7)c6)cc5C43)[nH]c2c1 (racemic) [Compound 3.4, (±)-exo-6-(trifluoromethyl)-2-(5-((2-(4-(trifluoromethyl)-1H-imidazol-2-yl)pyridin-4-yl)oxy)-1a,6b-dihydro-1H-cyclopropa[b]benzofuran-1-yl)-1H-benzo[d]imidazole] |  | 56 | 291
O=C1CCc2c(Oc3ccc4c(c3)C3C(O4)C3c3nc4cccc(F)c4[nH]3)ccnc2N1 (stereo not drawn) [Compound 2.19] |  | 1.6 | 11
O=C1CCc2c(Oc3ccc4c(c3)C3C(O4)C3c3nc4cc(Cl)c(F)cc4[nH]3)ccnc2N1 (stereo not drawn) [Compound 2.17] |  | 5.9 | 5.4
O=C1CCc2c(Oc3ccc4c(c3)C3C(O4)C3c3nc4ccc(Cl)cc4[nH]3)ccnc2N1 (stereo not drawn) [Compound 2.12] |  | 4.1 | 12
O=C1CCc2c(Oc3ccc4c(c3)C3C(O4)C3c3nc(-c4ccncc4)c[nH]3)ccnc2N1 (stereo not drawn) [Compound 2.31] |  | 0.35 | 3.7
O=C1CCc2c(Oc3ccc4c(c3)C3C(O4)C3c3nc4ccc(F)cc4[nH]3)ccnc2N1 (stereo not drawn) [Compound 2.7] |  | 2.1 | 10
CC(C)(C)c1ccc2nc(C3C4Oc5ccc(Oc6ccnc7c6CCC(=O)N7)cc5C43)[nH]c2c1 (stereo not drawn) [Compound 2.20] |  | 4.4 | 33
O=C1CCc2c(Oc3cccc4c3OC3C(c5nc6ccc(C(F)(F)F)cc6[nH]5)C43)ccnc2N1 (stereo not drawn) [Compound 2.25] |  | 36 | 849
